ChEMBL document CHEMBL1908284, “Rational use of in vitro P-glycoprotein assays in drug discovery” (J Pharmacol Exp Ther, 2001)

What was measured:
[1] = biological target: T1, ATP-dependent translocase ABCB1 (Homo sapiens, UniProt P08183); details: spodoptera frugiperda, sf9, 20 µM;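 on Ratio ATPase activity: Compound-stimulated ATPase activity measured in membrane preparations of MDR1-expressing Sf9 cells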
Description: Drug-stimulated Pgp ATPase activity ratio determined in MDR1-Sf9 cell membranes with test compound at a concentration of 20uM

[2] = biological target: T2, ATP-dependent translocase ABCB1 (MDR1) (Homo sapiens, UniProt P08183); test: in vitro; details: dog
Description: Ratio of apparent permeability from basolateral to apical side over apical to basolateral side determined in MDR1-MDCKII cells

[3] = biological target: T1, ATP-dependent translocase ABCB1; details: dog
Description: (§1) Apparent permeability (Papp) from basolateral to apical side determined in MDR1-MDCKII cells

[4] = biological target: T2, ATP-dependent translocase ABCB1 (MDR1); test: in vitro; details: dog; remark: listed apart in the source
Description: as §1

[5] = biological target: T1, ATP-dependent translocase ABCB1; details: dog; remark: listed apart in the source
Description: (§2) Apparent permeability (Papp) from apical to basolateral side determined in MDR1-MDCKII cells

[6] = biological target: T2, ATP-dependent translocase ABCB1 (MDR1); test: in vitro; details: dog; remark: listed apart in the source
Description: as §2

[7] = biological target: T1, ATP-dependent translocase ABCB1; test: TP_TRANSPORTER: ATP hydrolysis in MDR1-expressing Sf9 cells; type: functional

T2 sequence (P08183 whole entry): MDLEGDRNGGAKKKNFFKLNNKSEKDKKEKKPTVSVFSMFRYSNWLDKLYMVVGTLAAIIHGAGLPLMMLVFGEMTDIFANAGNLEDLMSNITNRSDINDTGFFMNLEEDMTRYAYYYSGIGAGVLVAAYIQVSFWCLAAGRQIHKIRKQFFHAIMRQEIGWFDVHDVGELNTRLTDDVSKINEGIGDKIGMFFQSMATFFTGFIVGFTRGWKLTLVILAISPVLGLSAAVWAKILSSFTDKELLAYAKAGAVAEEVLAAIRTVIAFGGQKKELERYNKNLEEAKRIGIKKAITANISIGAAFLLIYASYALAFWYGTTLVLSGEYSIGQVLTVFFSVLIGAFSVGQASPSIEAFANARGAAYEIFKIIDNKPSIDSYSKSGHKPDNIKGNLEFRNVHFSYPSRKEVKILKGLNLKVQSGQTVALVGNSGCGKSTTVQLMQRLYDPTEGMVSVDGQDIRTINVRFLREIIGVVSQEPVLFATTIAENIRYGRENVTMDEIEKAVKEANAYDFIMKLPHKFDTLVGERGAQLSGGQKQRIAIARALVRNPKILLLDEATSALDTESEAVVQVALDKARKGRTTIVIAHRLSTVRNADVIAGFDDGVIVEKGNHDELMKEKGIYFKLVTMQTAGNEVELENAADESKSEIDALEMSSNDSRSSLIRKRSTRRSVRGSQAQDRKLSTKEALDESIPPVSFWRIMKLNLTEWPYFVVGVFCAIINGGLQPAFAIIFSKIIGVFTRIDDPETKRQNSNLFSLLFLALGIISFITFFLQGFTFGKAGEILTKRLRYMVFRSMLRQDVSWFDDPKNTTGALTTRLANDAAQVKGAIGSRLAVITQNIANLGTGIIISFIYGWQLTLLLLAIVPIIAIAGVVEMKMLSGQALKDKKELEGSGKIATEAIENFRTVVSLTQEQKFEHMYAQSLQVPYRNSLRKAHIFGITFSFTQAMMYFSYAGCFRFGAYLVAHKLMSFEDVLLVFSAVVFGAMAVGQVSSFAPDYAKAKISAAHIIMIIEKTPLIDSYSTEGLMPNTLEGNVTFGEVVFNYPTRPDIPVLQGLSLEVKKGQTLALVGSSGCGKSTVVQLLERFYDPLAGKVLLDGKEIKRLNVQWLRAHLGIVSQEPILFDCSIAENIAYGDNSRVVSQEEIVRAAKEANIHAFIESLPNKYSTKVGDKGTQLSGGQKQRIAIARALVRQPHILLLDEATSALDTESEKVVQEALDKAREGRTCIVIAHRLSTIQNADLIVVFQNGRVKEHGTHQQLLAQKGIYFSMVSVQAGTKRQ
T1 sequence (P08183 whole entry): as above

| Ratio_ATPase activity [1] | efflux ratio ([2]; MDCK-MDR1, Ratio_Papp) | Papp ([3]; mdr1-mdckii) | Papp B→A ([4]; MDCK-MDR1, Papp) | Papp ([5]; mdr1-mdckii) | Papp A→B ([6]; MDCK-MDR1, Papp) | Activity [7] | Papp ([3]; MDCK-MDR1) | Papp ([5]; MDCK-MDR1) | Compound | efflux ratio ([2]; MDCK-MDR1) | Papp B→A ([4]; MDCK-MDR1) | Papp A→B ([6]; MDCK-MDR1) |
| --- | --- | --- | --- | --- | --- | --- | --- | --- | --- | --- | --- | --- |
| 0.77 | 3.83 |  | 17.2 ×10⁻⁶ cm/s |  | 4.49 ×10⁻⁶ cm/s | is not a substrate [-] |  |  | CCN(CC)CCCC(C)Nc1ccnc2cc(Cl)ccc12 (stereo unspecified) [CHLOROQUINE] |  |  |  |
| 2.63 | > 108 |  | 13.5 ×10⁻⁶ cm/s |  | < 0.125 ×10⁻⁶ cm/s | substrate [+] |  |  | CC(=O)O[C@H]1C(=O)[C@@]2(C)[C@H]([C@H](OC(=O)c3ccccc3)[C@]3(O)C[C@H](OC(=O)[C@H](O)[C@@H](NC(=O)c4ccccc4)c4ccccc4)C(C)=C1C3(C)C)[C@]1(OC(C)=O)CO[C@@H]1C[C@@H]2O [PACLITAXEL] |  |  |  |
| 1.33 | 1.04 |  | 51.4 ×10⁻⁶ cm/s |  | 49.6 ×10⁻⁶ cm/s |  | 51.4 ×10⁻⁶ cm/s | 49.6 ×10⁻⁶ cm/s | CC(C)NCC(O)COc1cccc2ccccc12 (stereo unspecified) [PROPRANOLOL] |  |  |  |
| 5.39 | 1.08 |  | 66.1 ×10⁻⁶ cm/s |  | 61.4 ×10⁻⁶ cm/s | substrate [+] |  |  | COC(=O)C1=C(C)NC(C)=C(C(=O)OCCN(C)Cc2ccccc2)C1c1cccc([N+](=O)[O-])c1 (stereo unspecified) [NICARDIPINE] |  |  |  |
|  |  | 70.3 ×10⁻⁶ cm/s | 98.7 ×10⁻⁶ cm/s | 2.17 ×10⁻⁶ cm/s | 3.73 ×10⁻⁶ cm/s |  |  |  | CC(C)CN(C[C@@H](O)[C@H](Cc1ccccc1)NC(=O)O[C@H]1CCOC1)S(=O)(=O)c1ccc(N)cc1 |  |  |  |
| 1.69 | 14.2 |  | 7.77 ×10⁻⁶ cm/s |  | 0.547 ×10⁻⁶ cm/s | is not a substrate [-] |  |  | COc1cccc2c1C(=O)c1c(O)c3c(c(O)c1C2=O)C[C@@](O)(C(C)=O)C[C@@H]3O[C@H]1C[C@H](N)[C@H](O)[C@H](C)O1 [DAUNORUBICIN] |  |  |  |

Continued, compound first:

| Compound | Ratio_ATPase activity [1] | efflux ratio ([2]; MDCK-MDR1, Ratio_Papp) | Papp ([3]; mdr1-mdckii) | Papp B→A ([4]; MDCK-MDR1, Papp) | Papp ([5]; mdr1-mdckii) | Papp A→B ([6]; MDCK-MDR1, Papp) | Activity [7] | Papp ([3]; MDCK-MDR1) | Papp ([5]; MDCK-MDR1) | efflux ratio ([2]; MDCK-MDR1) | Papp B→A ([4]; MDCK-MDR1) | Papp A→B ([6]; MDCK-MDR1) |
| --- | --- | --- | --- | --- | --- | --- | --- | --- | --- | --- | --- | --- |
| OC[C@@H](O)[C@@H](O)[C@H](O)[C@H](O)CO [MANNITOL] | 1.25 | 0.82 | 0.915 ×10⁻⁶ cm/s | 0.915 ×10⁻⁶ cm/s | 1.13 ×10⁻⁶ cm/s | 1.13 ×10⁻⁶ cm/s |  |  |  |  |  |  |
| CC[C@]1(O)C[C@H]2CN(CCc3c([nH]c4ccccc34)[C@@](C(=O)OC)(c3cc4c(cc3OC)N(C=O)[C@H]3[C@@](O)(C(=O)OC)[C@H](OC(C)=O)[C@]5(CC)C=CCN6CC[C@]43[C@@H]65)C2)C1 [VINCRISTINE] | 1.46 | 6.31 |  | 1.49 ×10⁻⁶ cm/s |  | 0.236 ×10⁻⁶ cm/s | is not a substrate [-] |  |  |  |  |  |
| COc1cc(Cc2cnc(N)nc2N)cc(OC)c1OC [TRIMETHOPRIM] | 3.61 | 3.61 |  | 26.7 ×10⁻⁶ cm/s |  | 7.39 ×10⁻⁶ cm/s | substrate [+] |  |  |  |  |  |
| CN(C)C(=O)Oc1cccc([N+](C)(C)C)c1.[Br-] [NEOSTIGMINE BROMIDE] | 1.06 |  |  |  |  |  | is not a substrate [-] |  |  | 1.81 | 1.37 ×10⁻⁶ cm/s | 0.758 ×10⁻⁶ cm/s |
| COC(=O)Nc1nc2ccc(C(=O)c3ccccc3)cc2[nH]1 [MEBENDAZOLE] | 2 | 0.91 |  | 64.8 ×10⁻⁶ cm/s |  | 71.4 ×10⁻⁶ cm/s | substrate [+] |  |  |  |  |  |
| CC[C@H]1OC(=O)[C@H](C)[C@@H](O[C@H]2C[C@@](C)(OC)[C@@H](O)[C@H](C)O2)[C@H](C)[C@@H](O[C@@H]2O[C@H](C)C[C@H](N(C)C)[C@H]2O)[C@](C)(OC)C[C@@H](C)C(=O)[C@H](C)[C@@H](O)[C@]1(C)O [CLARITHROMYCIN] | 3.55 | 31.3 |  | 33.6 ×10⁻⁶ cm/s |  | 1.08 ×10⁻⁶ cm/s | substrate [+] |  |  |  |  |  |
| CN1CCC[C@@H]1Cc1c[nH]c2ccc(CCS(=O)(=O)c3ccccc3)cc12 | 2.22 | 31.5 |  | 57.8 ×10⁻⁶ cm/s |  | 1.84 ×10⁻⁶ cm/s | substrate [+] |  |  |  |  |  |
